This is an account of results in ChEMBL document CHEMBL5634181, “Genome Mining Leads to Diverse Sesquiterpenes with Anti-inflammatory Activity from an Arctic-Derived Fungus” (J Nat Prod, 2024).

Data set [1] concerns RAW264.7. The data set can be described thus: Antiproliferative activity against LPS-induced mouse RAW264.7 cells assessed as reduction in cell viability > 40 uM incubated for 24 hrs by CCK-8 assay. Format: functional, cell-based. On the technique in general: Tetrazolium dyes change colour on reduction, which living cells bring about.
Data set [2] deals with RAW264.7. The data set can be described thus: Anti-inflammatory activity against LPS-Induced mouse RAW264.7 cells assessed as reduction in NO release at 10 uM incubated for 24 hrs. Format: functional, cell-based.
The subject of data set [3] is RAW264.7. Description: Anti-inflammatory activity against LPS-Induced mouse RAW264.7 cells assessed as inhibition rate of NO release at 10 uM incubated for 24 hrs relative to control. The class given is functional.
Data set [4] deals with RAW264.7. The data set can be described thus: Cytotoxicity against LPS-induced mouse RAW264.7 cells assessed as effect on cell viability upto to 160 uM incubated for 24 hrs by CCK-8 assay. Format: toxicity, cell-based. The settings on record: raw264.7, 24 h.
Data set [5] has as its system RAW264.7. The data set can be described thus: Anti-inflammatory activity against LPS-induced mouse RAW264.7 cells reduction in TNF-alpha mRNA level by RT-qPCR analysis. Format: functional, cell-based. The settings on record: dose 20-40 µM. Background: Real-time PCR tracks product formation cycle by cycle.
Data set [6] deals with RAW264.7. Description: Anti-inflammatory activity against LPS-induced mouse RAW264.7 cells reduction in IL-6 mRNA level by RT-qPCR analysis. The class given is functional, cell-based. The settings on record: dose 20-40 µM.
The test system of data set [7] is RAW264.7. The data set can be described thus: Anti-inflammatory activity against LPS-induced mouse RAW264.7 cells reduction in IL-1beta mRNA level by RT-qPCR analysis. As to conditions: dose 20-40 µM. Format: functional, cell-based.
Data set [8] deals with RAW264.7. The data set can be described thus: Anti-inflammatory activity against LPS-induced mouse RAW264.7 cells reduction in IL-18 mRNA level by RT-qPCR analysis. The class given is functional, cell-based. As to conditions: dose 20-40 µM.
In data set [9] the test system is RAW264.7. Description: Anti-inflammatory activity against LPS-Induced mouse RAW264.7 cells assessed as suppression of p-p38 expression by Western blot analysis. The class given is functional, cell-based. As to conditions: dose 20-40 µM. (Immunoblotting shows a protein as a band on a membrane.)
In data set [10] the test system is RAW264.7. The data set can be described thus: Anti-inflammatory activity against LPS-Induced mouse RAW264.7 cells assessed as suppression of p-ERK expression by Western blot analysis. As to conditions: dose 20-40 µM. The class given is functional, cell-based.
In data set [11] the test system is RAW264.7. Description: Anti-inflammatory activity against LPS-Induced mouse RAW264.7 cells assessed as suppression of p-JNK expression by Western blot analysis. Format: functional, cell-based. As to conditions: dose 20-40 µM.
The subject of data set [12] is RAW264.7. The data set can be described thus: Anti-inflammatory activity against LPS-Induced mouse RAW264.7 cells assessed as suppression of NLRP3 expression at 20 to 40 uM by Western blot analysis. The class given is functional, cell-based. The settings on record: dose 20-40 µM.
The subject of data set [13] is RAW264.7. Description: Anti-inflammatory activity against LPS-Induced mouse RAW264.7 cells assessed as suppression of caspase-1 expression at 20 to 40 uM by Western blot analysis. Format: functional, cell-based. The settings on record: dose 20-40 µM.
The species entered for data set [14] is Danio rerio. Description: Anti-inflammatory activity against CuSO4-induced transgenic Zebrafish acute inflammation model assessed as decrease in migration of inflammatory cells to lateral line at 20 to 40 uM preincubated with CuSO4 for 24 hrs followed by compound addition and measured after 2 hrs by fluorescence microscopic analysis. Format: functional, organism-based. As to conditions: dose 20-40 µM.

Data set [15] is filed under the species Danio rerio. Description: Anti-inflammatory activity against CuSO4-induced transgenic Zebrafish acute inflammation model assessed as zebrafish movement by measuring decrease in total distance at 20 to 40 uM preincubated with CuSO4 for 24 hrs followed by compound addition and measured after 2 hrs by fluorescence microscopic analysis. The class given is functional, organism-based. As to conditions: dose 20-40 µM.

Data set [16] is filed under the species Danio rerio. Description: Anti-inflammatory activity against CuSO4-induced transgenic Zebrafish acute inflammation model assessed as zebrafish movement by measuring average velocity at 20 to 40 uM preincubated with CuSO4 for 24 hrs followed by compound addition and measured after 2 hrs by fluorescence microscopic analysis. The class given is functional, organism-based. The settings on record: dose 20-40 µM.

The species named for data set [17] is Danio rerio. The data set can be described thus: Anti-inflammatory activity against CuSO4-induced transgenic Zebrafish acute inflammation model assessed as decrease in TNF-alpha expression at 20 to 40 uM preincubated with CuSO4 for 24 hrs followed by compound addition and measured after 2 hrs by RT-qPCR analysis. The class given is functional, organism-based. The settings on record: dose 20-40 µM.

For data set [18], the species on record is Danio rerio. Description: Anti-inflammatory activity against CuSO4-induced transgenic Zebrafish acute inflammation model assessed as decrease in IL-6 expression at 20 to 40 uM preincubated with CuSO4 for 24 hrs followed by compound addition and measured after 2 hrs by RT-qPCR analysis. The class given is functional, organism-based. The settings on record: dose 20-40 µM.

For data set [19], the species on record is Danio rerio. The data set can be described thus: Anti-inflammatory activity against CuSO4-induced transgenic Zebrafish acute inflammation model assessed as decrease in IL-1beta expression at 20 to 40 uM preincubated with CuSO4 for 24 hrs followed by compound addition and measured after 2 hrs by RT-qPCR analysis. The class given is functional, organism-based. The settings on record: dose 20-40 µM.

The species entered for data set [20] is Danio rerio. Description: Anti-inflammatory activity against CuSO4-induced transgenic Zebrafish acute inflammation model assessed as decrease in caspase-1 expression at 20 to 40 uM preincubated with CuSO4 for 24 hrs followed by compound addition and measured after 2 hrs by RT-qPCR analysis. The class given is functional, organism-based. As to conditions: dose 20-40 µM.

The species entered for data set [21] is Danio rerio. Description: Anti-inflammatory activity against CuSO4-induced transgenic Zebrafish acute inflammation model assessed as decrease in NLRP3 expression at 20 to 40 uM preincubated with CuSO4 for 24 hrs followed by compound addition and measured after 2 hrs by RT-qPCR analysis. The class given is functional, organism-based. As to conditions: dose 20-40 µM.

Activity calls are given as the source filed them. No cut-off for these calls is given here.

As for `C=C1C[C@H](O)C[C@]2(C)CC[C@@H](C(C)(C)O)C[C@@H]12`, the outcome in [1] was inactive.
As for `Cc1ccc([C@@](C)(O)C/C=C/C(C)(C)O)cc1`, in [1], the outcome was inactive. Moreover, the result in [2] was Active.
As to `CC(C)=CCC[C@](C)(O)[C@@H]1CC=C(C)[C@@H](O)[C@H]1O`, in data set [1], the result was inactive.
Same read-out and setting: the same measure for `CC(C)=C[C@H](O)C[C@]1(C)[C@@H]2C[C@H]1C(C)=CC2=O`: “inactive”; for `CC1=C2C[C@H](C(C)(C)O)CC[C@@]2(C)CCC1=O`: “Active”.
For `CC(C)=CCC[C@](C)(O)[C@@H]1CC=C(C)[C@@H](O)C1`, the outcome in [1] was inactive. Further, in data set [2], the result was Active.
On to `CC1=CC[C@@]2(C[C@H]1O)[C@H](C)CC[C@@H]2C(C)CO` (stereo partly specified), for which the outcome in data set [1] was inactive. In addition, the outcome in data set [2], in data set [12], in data set [13], in data set [14], in data set [15] and in [16] was Active. Besides, the outcome in data set [17], in data set [18], in data set [19], in [20] and in data set [21] was Active. Further, the inhibition (commonly the percentage by which the read-out fell short of the control) at 10 µM in [3] is 65%. The Activity entry in data set [4] was “Non-Toxic”; in data set [5] it was “Dose-Dependent Effect”; in data set [6], “Dose-Dependent Effect”; in [7] it was “Dose-Dependent Effect”; in [8] it was “Dose-Dependent Effect”; in data set [9], “Dose-Dependent Effect”. The Activity result in [10] and in data set [11] was “Dose-Dependent Effect” in each case.
As to `CC(C)=C[C@H]1C[C@@](C)(O)[C@H]2CC=C(C)[C@@H](O)[C@H]2O1`, the outcome in data set [1] was inactive. Moreover, the outcome in [2] was Active.
With `CC1=CC[C@@H]2[C@H](O)COC/C(C)=C\[C@@H](O)C[C@]12C`, in data set [1], the result was inactive.
The same measure, in the same setting: the entry for `CC1=CC[C@@H]([C@@](C)(O)C/C(C)=C/[C@H](C)O)[C@@H](O)[C@H]1O` is “inactive”; for `C=C1[C@H](O)CC[C@]2(C)CC[C@@H](C(C)(C)O)C[C@@H]12` it is “inactive”.
In the case of `C[C@@H]1C[C@H]2[C@@H]3CCC4=CC(=O)C=C[C@]4(C)[C@@]3(F)[C@@H](O)C[C@]2(C)[C@@]1(O)C(=O)CO` [DEXAMETHASONE], in [1], the outcome was inactive. Besides, in data set [3], the inhibition at 10 µM turned out to be 72%.
Regarding `CC(C)=C[C@H]1C[C@@](C)(O)[C@@H]2[C@@H](CC=C(C)[C@@H]2O)O1`, the outcome in data set [1] was inactive.
The same measure, in the same setting: the entry for `CC1=CC(=O)[C@H]2C[C@@H]1[C@]2(C)C/C=C/C(C)(C)O` is “Active”.
On to `CC1=CC(=O)C[C@@]2(C)CC[C@H](C(C)(C)O)C[C@H]12`, for which, in [1], the outcome was inactive. Further, the result in data set [2] was Active.
Regarding `CO[C@]1([C@H](O)[C@@H](O)CC=C(C)C)C=CCC(C)=C1C`, in [1], the outcome was inactive.
